{"source": "ChEMBL document CHEMBL1147264", "about": "“Tricholomalides A-C, new neurotrophic diterpenes from the mushroom Tricholoma sp” (J Nat Prod, 2003)", "key": {"[1]": {"test": "Inhibition of Na(+)/K(+) ATPase"}, "[2]": {"test_system": "PC-12", "test": "Induction of neurite outgrowth in rat PC12 cells", "format": "functional, cell-based"}, "[3]": {"test_system": "PC-12", "test": "Induction of neurite outgrowth in rat PC12 cells at 100 uM after 2 days by phase-contrast microscopy", "format": "functional, cell-based"}, "[4]": {"test_system": "HeLa", "test": "Cytotoxicity against human HeLa cells at 50 ug/mL after 3 days by MTT assay", "format": "functional, cell-based"}}, "note": "The source made the active and inactive calls. No cut-off for these calls is given here."}
{"smiles": "O=C(O)/C(=C1/OCO/C1=C(/C(=O)O)c1ccccc1)c1ccccc1", "values": [{"measurement": "Activity", "setting": "[1]", "result": "Active"}]}
{"smiles": "CC(C)C1=C2[C@H]3CC=C(C=O)CC(=O)[C@]3(C)CC[C@@]2(C(=O)O)CC1", "values": [{"measurement": "Activity", "setting": "[2]", "result": "inactive"}]}
{"smiles": "CO[C@H]1[C@H]2[C@@H](O)O[C@@H]1[C@]1(C)CC[C@@]3(C(=O)O)CCC(C(C)C)=C3[C@H]1C[C@H]2OC", "values": [{"measurement": "Activity", "setting": "[2]", "result": "inactive"}]}
{"smiles": "C=C(CO)[C@@]1(O)C=C2C(=O)C[C@@H](C(C)C)[C@]2(C)C[C@H]2OC(=O)C[C@]21C", "values": [{"measurement": "Activity", "setting": "[3]", "result": "Active"}, {"measurement": "Activity", "setting": "[4]", "result": "inactive"}]}
{"smiles": "C=C(CO)[C@]12C=C3C(=O)C[C@@H](C(C)C)[C@]3(C)C[C@@H](O)[C@@]1(C)CC(=O)O2", "values": [{"measurement": "Activity", "setting": "[3]", "result": "Active"}, {"measurement": "Activity", "setting": "[4]", "result": "inactive"}]}
{"smiles": "C=C1CO[C@H]2[C@@H]3C(=O)C[C@@H](C(C)C)[C@]3(C)C[C@H]3OC(=O)C[C@@]3(C)[C@@]12O", "values": [{"measurement": "Activity", "setting": "[3]", "result": "Active"}, {"measurement": "Activity", "setting": "[4]", "result": "inactive"}]}
